The record followed here is US20200071667A1, “COMPOSITION COMPRISING GLYCYRRHIZIN FOR INDUCING DIFFERENTIATION INTO MYELOID-DERIVED SUPPRESSOR CELL FROM MYELOID CELL” (Konkuk University Glocal Industry-Academic Collabo, priority 2018, published 2020).

Experiment [1] has as its system heart tissues and lung tissues. Kind of experiment: Histopathologic analysis and injury score of heart and lung tissues in LPS-induced sepsis. As to conditions: 5-point scale 0-4; LPS 1 μg i.p.; GR 100 mg/kg i.p. twice. In kind it is in vivo, C57BL/6 mice. The method, then: (§1) Animal experiments were performed according to the National Institutes of Health (NIH) guidelines for the care and use of experimental animals. This study was conducted with the approval of the Konkuk University Animal Care and Use Committee (KU16062). 8-week-old male C57BL/6 mice without specific pathogens were used, and as needed, experimental groups were divided into three groups: a control, an LPS group, and an LPS+GR group.
Specifically, 0.1 ml of phosphate buffered saline (PBS; Gibco, Grand Island, N.Y., USA) was injected intraperitoneally (i.p.) into mice of the control, and 12 hours after the injection, 0.1 ml of PBS was intraperitoneally injected again into each mouse. […]
Specifically, the heart tissues and lung tissues of mice of each experimental group prepared in Example 1 were fixed in a 4% paraformaldehyde solution (Biosesang, Seongnam, Korea) at 25° C. overnight and inserted into paraffin blocks. […] Heart (including left and right ventricles) or lung injury was scored based on Table 2 below. Each score was determined by a 5-point scale such as 0: minimal injury, 1: minor injury, 2: moderate injury, 3: severe injury, and 4: maximum injury.

For experiment [2], the system named is IL-6. Kind of experiment: ELISA of IL-6 in BALF and blood of mice with LPS-induced sepsis. In kind it is in vivo, C57BL/6 mice. Particulars: 12 hours after final injection. How it is done:
(§2) Specifically, 0.1 ml of phosphate buffered saline (PBS; Gibco, Grand Island, N.Y., USA) was injected intraperitoneally (i.p.) into mice of the control, and 12 hours after the injection, 0.1 ml of PBS was intraperitoneally injected again into each mouse. 1 μg of LPS (Escherichia coli serotype 0111:B4, Sigma-Aldrich, St. Louis, Mo., USA) dissolved in 0.1 ml of PBS was injected intraperitoneally (i.p.) into mice of the LPS group to induce sepsis, and 12 hours after sepsis induction, 0.1 ml of PBS was intraperitoneally injected into each mouse. […]
(§3) Specifically, for the analysis of bronchoalveolar lavage fluid and blood, 12 hours after the final injection into mice of each experimental group of Example 1, 1 μg/g of Zoletil®50 (a combined preparation of tiletamine and zolazepam, Virbac Laboratories, Carros, France) as an anesthetic and 0.1 U/g of heparin sodium (Green Cross Co., Yongin, Korea) were intraperitoneally injected into each mouse to minimize the effect of aches or pains on immunity. […] The levels of tumor necrosis factor (TNF)-α, IL-6, and IL-1β in BALF and blood were measured using a mouse enzyme-linked ELISA kit (R&D Systems Inc., Minneapolis, Minn., USA) according to the manufacturer's instructions. Samples collected from each group were analyzed in triplicate.
(In general: In an ELISA, binding on a coated surface is turned into a signal by an enzyme label.)

Experiment [3] relates to tumor necrosis factor (TNF)-α. Nature of the experiment: ELISA of TNF-α in BALF and blood of mice with LPS-induced sepsis. In kind it is in vivo, C57BL/6 mice. As to conditions: 12 hours after final injection. The method, then: as §2, §3
Experiment [4] relates to Toll-like receptor 4 (TLR4). Kind of experiment: Immunohistochemical staining for TLR4 in heart or lung tissues. In kind it is in vivo, C57BL/6 mice. As to conditions: heart and lungs. How it is done:
Specifically, 0.1 ml of phosphate buffered saline (PBS; Gibco, Grand Island, N.Y., USA) was injected intraperitoneally (i.p.) into mice of the control, and 12 hours after the injection, 0.1 ml of PBS was intraperitoneally injected again into each mouse. 1 μg of LPS (Escherichia coli serotype 0111:B4, Sigma-Aldrich, St. Louis, Mo., USA) dissolved in 0.1 ml of PBS was injected intraperitoneally (i.p.) into mice of the LPS group to induce sepsis, and 12 hours after sepsis induction, 0.1 ml of PBS was intraperitoneally injected into each mouse. 1 μg of LPS and 100 mg/kg of ammonium glycyrrhizinate (GR; Abcam Inc., Cambridge, UK) dissolved in 0.1 ml of PBS were injected intraperitoneally (i.p.) into mice of the LPS+GR group, and 12 hours after the injection, 100 mg/kg of ammonium glycyrrhizinate dissolved in 0.1 ml of PBS was intraperitoneally injected into each mouse.
It was determined whether TLR4 expression levels were inhibited when mice with sepsis induced by LPS were treated with glycyrrhizin. The expression level of Toll-like receptor 4 (TLR4) was confirmed using immunohistochemistry and western blot analysis.
Specifically, for immunohistochemical staining for TLR4, the heart or lung tissues of mice of each experimental group of Example 1 were cut to 4 μm after deparaffinization treatment. […] TLR4 intensity was quantified using NIH Image J software.

The subject of experiment [5] is IL-1β. Kind of experiment: ELISA of IL-1β in BALF and blood of mice with LPS-induced sepsis. In kind it is in vivo, C57BL/6 mice. As to conditions: 12 hours after final injection. The method, then:
as §2, §3

The subject of experiment [6] is myeloid cells obtained from blood, the heart, and the lungs. Nature of the experiment: Flow cytometric analysis of MDSC ratio in myeloid cells of mice with LPS-induced sepsis (in vivo). On the set-up: species or system C57BL/6 mice. The method, then: as §1, §2
The myeloid cells obtained from blood, the heart, or the lungs were washed with fluorescence-activated cell sorting (FACS) buffer (PBS containing 1% bovine serum albumin and 0.01% NaN3). […]

For lipopolysaccharide [LPS], the “injury score, heart tissues” value in experiment [1] is recorded as 3.3±0.8. The “injury score, lung tissues” value in experiment [1] came out at 3.5±0.5. The IL-6 amounted to 650.26 ± 11.02 pg/µL in experiment [2] (BALF) and 172.63 ± 14.22 pg/µL in experiment [2] (Blood). In addition, the results for the TNF-α in experiment [3] (BALF) and in experiment [3] (Blood) were 284.20 ± 56.96 pg/µL and 98.78 ± 9.17 pg/µL, respectively. Also, in experiment [4], the “expression level of TLR4 by immunohistochemistry” value was “significantly higher in both the heart and the lungs compared to the control”. Moreover, the IL-1β in experiment [5] (BALF) is 164.82 ± 17.81 pg/µL; in experiment [5] (Blood) it was 126.28 ± 7.61 pg/µL. In experiment [6] (myeloid cells from blood, heart or lungs, LPS 1 μg i.p., GR 100 mg/kg i.p. twice), the “ratio of MDSCs to myeloid cells (MDSCs/myeloid cells)” value is given as “significantly reduced compared to the control”. Further, in experiment [6] (preliminary study using 6 mice with LPS-induced sepsis, blood), the “blood ratio of MDSCs to CD11+GR1 myeloid cells” value came out at 18.4±3.13%.
